Measurements as given in ChEMBL document CHEMBL3611999, “Bifunctional compounds targeting both D2 and non-α7 nACh receptors: design, synthesis and pharmacological characterization” (Eur J Med Chem, 2015).
Active and inactive are the calls of the source. The rule behind the calls is not given here.

Legend:
[1] = target: Neuronal acetylcholine receptor; alpha4/beta2 (Rattus norvegicus, UniProt P09483+P12390); assay: Displacement of [3H]epibatidine from immunoimmobilized alpha4beta2 nAChR in Sprague-Dawley rat striatal membranes by liquid scintillation counting; parameters: species or system Sprangue-Dawley, Striatum, Membrane
Neuronal acetylcholine receptor; alpha4/beta2 (Rattus norvegicus, UniProt P09483+P12390), sequence (P09483 whole entry): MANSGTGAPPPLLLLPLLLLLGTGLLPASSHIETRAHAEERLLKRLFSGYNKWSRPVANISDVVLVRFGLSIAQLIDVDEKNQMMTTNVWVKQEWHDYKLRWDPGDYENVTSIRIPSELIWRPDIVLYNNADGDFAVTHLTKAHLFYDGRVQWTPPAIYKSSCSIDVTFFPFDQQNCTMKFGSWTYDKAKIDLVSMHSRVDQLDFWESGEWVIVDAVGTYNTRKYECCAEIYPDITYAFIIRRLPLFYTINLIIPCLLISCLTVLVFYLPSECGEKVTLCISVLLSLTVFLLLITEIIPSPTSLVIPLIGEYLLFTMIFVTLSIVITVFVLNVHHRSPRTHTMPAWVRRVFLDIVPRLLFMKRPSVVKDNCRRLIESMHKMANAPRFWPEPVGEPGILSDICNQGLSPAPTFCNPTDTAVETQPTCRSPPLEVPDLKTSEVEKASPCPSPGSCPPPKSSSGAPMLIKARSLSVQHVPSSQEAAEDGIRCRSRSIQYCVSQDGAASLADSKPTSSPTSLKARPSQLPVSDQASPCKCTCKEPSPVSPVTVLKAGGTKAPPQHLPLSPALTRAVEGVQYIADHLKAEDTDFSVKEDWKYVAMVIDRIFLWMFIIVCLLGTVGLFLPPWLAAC
Neuronal acetylcholine receptor; alpha4/beta2 (Rattus norvegicus, UniProt P09483+P12390), sequence (P12390 whole entry): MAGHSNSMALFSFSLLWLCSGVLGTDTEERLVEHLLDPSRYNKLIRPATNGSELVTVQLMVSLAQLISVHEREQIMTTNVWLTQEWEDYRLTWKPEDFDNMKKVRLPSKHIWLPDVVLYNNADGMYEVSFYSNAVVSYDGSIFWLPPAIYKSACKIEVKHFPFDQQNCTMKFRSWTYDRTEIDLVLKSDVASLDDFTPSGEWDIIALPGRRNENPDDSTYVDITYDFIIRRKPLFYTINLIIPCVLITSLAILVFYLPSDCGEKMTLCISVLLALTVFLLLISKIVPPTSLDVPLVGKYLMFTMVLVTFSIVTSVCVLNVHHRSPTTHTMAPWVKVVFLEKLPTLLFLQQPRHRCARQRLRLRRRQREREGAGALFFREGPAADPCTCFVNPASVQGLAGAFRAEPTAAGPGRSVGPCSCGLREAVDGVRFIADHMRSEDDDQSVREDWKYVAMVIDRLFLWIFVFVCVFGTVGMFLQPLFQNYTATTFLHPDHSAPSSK

[2] = target: Neuronal acetylcholine receptor subunit alpha-7 (Rattus norvegicus, UniProt Q05941); assay: Displacement of [125I]alpha-bungarotoxin from alpha7 nAChR in Sprague-Dawley rat hippocampus membrane homogenates by gamma counting; parameters: species or system Sprangue-Dawley
Neuronal acetylcholine receptor subunit alpha-7, sequence (Q05941 whole entry): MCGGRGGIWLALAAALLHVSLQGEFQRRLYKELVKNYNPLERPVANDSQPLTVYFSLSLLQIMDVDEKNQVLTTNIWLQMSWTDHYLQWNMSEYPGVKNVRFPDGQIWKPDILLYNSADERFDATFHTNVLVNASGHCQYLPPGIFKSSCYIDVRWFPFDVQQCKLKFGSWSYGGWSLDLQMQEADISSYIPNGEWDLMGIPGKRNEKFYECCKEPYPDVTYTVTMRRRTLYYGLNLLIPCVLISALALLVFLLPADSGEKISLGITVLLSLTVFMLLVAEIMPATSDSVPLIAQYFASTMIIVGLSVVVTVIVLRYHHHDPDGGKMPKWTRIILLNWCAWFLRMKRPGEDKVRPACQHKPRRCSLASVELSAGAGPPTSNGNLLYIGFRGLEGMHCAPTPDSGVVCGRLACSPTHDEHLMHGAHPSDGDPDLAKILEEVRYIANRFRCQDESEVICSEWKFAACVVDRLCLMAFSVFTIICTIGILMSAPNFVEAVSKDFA

[3] = target: T1, Neuronal acetylcholine receptor; alpha4/beta2 (Homo sapiens, UniProt P17787+P43681); assay: Antagonist activity at human alpha4beta2 nAChR expressed in HEK293 cells assessed as inhibition of acetylcholine-induced inward current at holding potential of -70 mV by patch clamp technique; type: cell-based
T1 sequence (P17787 whole entry): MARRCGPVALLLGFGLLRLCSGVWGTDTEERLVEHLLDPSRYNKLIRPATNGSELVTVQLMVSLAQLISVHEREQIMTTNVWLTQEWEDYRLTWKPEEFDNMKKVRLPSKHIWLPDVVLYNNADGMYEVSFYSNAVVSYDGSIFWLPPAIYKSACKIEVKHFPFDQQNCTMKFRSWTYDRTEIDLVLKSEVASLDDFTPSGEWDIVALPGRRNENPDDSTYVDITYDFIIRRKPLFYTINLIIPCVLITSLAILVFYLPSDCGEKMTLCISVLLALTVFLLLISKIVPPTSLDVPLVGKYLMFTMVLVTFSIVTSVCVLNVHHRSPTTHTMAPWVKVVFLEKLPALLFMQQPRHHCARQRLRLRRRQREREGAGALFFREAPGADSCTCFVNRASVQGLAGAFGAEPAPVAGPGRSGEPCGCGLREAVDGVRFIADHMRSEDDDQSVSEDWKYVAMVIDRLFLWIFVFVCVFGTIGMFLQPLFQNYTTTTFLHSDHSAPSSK
T1 sequence (P43681 whole entry): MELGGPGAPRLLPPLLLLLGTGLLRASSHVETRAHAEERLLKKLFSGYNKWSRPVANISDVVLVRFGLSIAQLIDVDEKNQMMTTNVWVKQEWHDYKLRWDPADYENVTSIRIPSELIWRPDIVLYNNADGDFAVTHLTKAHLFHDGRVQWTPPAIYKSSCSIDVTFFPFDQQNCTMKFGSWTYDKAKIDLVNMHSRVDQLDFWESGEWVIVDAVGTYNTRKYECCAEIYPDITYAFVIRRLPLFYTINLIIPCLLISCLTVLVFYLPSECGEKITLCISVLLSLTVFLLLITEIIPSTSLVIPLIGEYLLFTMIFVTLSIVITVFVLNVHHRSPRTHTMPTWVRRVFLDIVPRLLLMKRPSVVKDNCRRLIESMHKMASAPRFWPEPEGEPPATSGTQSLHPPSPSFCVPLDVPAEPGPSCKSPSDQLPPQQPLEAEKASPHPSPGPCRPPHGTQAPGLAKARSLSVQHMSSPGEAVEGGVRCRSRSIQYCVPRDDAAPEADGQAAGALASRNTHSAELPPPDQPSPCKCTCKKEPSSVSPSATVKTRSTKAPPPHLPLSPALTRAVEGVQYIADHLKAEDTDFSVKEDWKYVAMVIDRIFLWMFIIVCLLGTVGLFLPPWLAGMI

[4] = target: T1, Neuronal acetylcholine receptor; alpha4/beta2; assay: Partial agonist activity at human alpha4beta2 nAChR expressed in HEK293 cells assessed as inward current at holding potential of -70 mV by patch clamp technique relative to acetylcholine; type: cell-based; parameters: concentration or dose not given beside the values
Rattus norvegicus [5] = species: Rattus norvegicus; assay: Agonist activity at nAChR in Sprague-Dawley rat striatal slices assessed as induction of [3H]-dopamine release; details: Sprangue-Dawley
[6] = Antagonist activity at nAChR in Sprague-Dawley rat striatal slices assessed as inhibition of nicotine-induced [3H]-dopamine release; details: Sprangue-Dawley
D(2) dopamine receptor = D(2) dopamine receptor (Rattus norvegicus, UniProt P61169); assay: Displacement of [3H]raclopride from dopamine D2 receptor in Sprague-Dawley rat striatal membranes after 30 mins; parameters: species or system Sprangue-Dawley, Striatum, Membrane
D(2) dopamine receptor, sequence (P61169 whole entry): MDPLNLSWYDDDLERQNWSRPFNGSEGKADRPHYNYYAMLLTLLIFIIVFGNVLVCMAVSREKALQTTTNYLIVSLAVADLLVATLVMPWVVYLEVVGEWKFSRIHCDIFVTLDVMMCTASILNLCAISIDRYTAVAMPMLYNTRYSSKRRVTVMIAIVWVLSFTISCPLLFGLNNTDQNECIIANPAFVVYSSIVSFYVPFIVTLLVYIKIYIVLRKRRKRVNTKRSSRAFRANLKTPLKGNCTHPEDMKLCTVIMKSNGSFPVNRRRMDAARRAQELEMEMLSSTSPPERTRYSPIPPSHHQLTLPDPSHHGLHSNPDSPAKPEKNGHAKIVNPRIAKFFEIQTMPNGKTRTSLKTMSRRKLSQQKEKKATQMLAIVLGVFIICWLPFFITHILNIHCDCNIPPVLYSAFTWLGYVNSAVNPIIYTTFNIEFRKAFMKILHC

D(3) dopamine receptor = D(3) dopamine receptor (Homo sapiens, UniProt P35462); assay: Displacement of [3H]raclopride from dopamine D3 receptor (unknown origin) expressed in HEK293 cells after 30 mins; type: cell-based
D(3) dopamine receptor, sequence (P35462 whole entry): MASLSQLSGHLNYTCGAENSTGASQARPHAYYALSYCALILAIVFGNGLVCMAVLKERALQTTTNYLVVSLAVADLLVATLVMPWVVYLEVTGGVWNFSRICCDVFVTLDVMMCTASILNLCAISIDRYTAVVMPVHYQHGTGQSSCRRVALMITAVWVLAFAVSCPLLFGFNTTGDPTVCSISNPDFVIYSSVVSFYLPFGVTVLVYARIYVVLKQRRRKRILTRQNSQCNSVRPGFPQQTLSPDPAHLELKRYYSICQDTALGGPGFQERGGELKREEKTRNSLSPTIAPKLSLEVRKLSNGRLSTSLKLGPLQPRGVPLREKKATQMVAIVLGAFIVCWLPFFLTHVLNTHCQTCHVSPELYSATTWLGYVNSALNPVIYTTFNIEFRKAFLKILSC

[7] = target: Mitogen-activated protein kinase; ERK1/ERK2 (Homo sapiens) (UniProt P27361+P28482); assay: Induction of ERK1/2 phosphorylation in human HEK293 cells at 10 uM after 5 mins by Western blotting; type: cell-based
Mitogen-activated protein kinase; ERK1/ERK2 (Homo sapiens), sequence (P27361 whole entry, looked up): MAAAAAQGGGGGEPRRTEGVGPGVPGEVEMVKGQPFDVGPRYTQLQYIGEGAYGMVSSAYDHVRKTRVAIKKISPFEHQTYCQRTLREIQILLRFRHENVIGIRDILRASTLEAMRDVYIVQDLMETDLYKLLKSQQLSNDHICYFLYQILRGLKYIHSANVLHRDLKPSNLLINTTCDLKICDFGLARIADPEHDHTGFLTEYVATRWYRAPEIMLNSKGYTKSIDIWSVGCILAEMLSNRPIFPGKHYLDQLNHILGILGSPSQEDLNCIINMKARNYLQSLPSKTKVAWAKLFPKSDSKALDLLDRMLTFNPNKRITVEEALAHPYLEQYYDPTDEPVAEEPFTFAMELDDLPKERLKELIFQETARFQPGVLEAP
Mitogen-activated protein kinase; ERK1/ERK2 (Homo sapiens), sequence (P28482 whole entry, looked up): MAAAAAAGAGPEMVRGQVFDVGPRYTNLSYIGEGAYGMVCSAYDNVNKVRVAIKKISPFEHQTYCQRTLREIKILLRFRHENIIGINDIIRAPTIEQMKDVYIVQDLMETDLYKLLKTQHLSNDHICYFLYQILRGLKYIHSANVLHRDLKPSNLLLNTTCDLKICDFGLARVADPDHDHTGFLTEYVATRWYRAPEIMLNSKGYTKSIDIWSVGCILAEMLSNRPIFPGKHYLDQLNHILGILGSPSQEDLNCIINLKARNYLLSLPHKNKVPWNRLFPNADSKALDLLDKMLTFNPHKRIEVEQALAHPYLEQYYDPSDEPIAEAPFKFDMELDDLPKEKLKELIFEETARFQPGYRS

[8] = target: D(2) dopamine receptor (Homo sapiens) (UniProt P14416); assay: Partial agonist activity at dopamine D2 receptor (unknown origin) expressed in HEK293 cells assessed as reduction of quinpirole-induced ERK1/2 phosphorylation at 10 uM treated 30 mins before quinpirole addition by Western blotting; type: cell-based; parameters: scale not given: the % may be the effect or the level left
D(2) dopamine receptor (Homo sapiens), sequence (P14416 whole entry): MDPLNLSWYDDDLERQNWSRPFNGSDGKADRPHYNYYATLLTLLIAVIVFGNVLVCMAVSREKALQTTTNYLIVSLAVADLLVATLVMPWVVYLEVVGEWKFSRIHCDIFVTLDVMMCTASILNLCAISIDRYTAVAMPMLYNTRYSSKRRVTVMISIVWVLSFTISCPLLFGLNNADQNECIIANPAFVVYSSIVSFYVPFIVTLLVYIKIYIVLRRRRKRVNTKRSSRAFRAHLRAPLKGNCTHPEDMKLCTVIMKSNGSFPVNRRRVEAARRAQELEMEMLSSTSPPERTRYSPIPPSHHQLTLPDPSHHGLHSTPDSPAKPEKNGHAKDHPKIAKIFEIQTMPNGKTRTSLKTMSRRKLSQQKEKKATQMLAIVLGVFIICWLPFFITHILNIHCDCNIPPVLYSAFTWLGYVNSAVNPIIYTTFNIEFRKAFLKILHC

[9] = target: T1, Neuronal acetylcholine receptor; alpha4/beta2; assay: Agonist activity at alpha4beta2 nAChR (unknown origin) expressed in HEK293 cells assessed as increase of ERK1/2 phosphorylation at 10 uM after 5 mins by Western blotting; type: cell-based
[10] = target: T1, Neuronal acetylcholine receptor; alpha4/beta2; assay: Antagonist activity at alpha4beta2 nAChR (unknown origin) expressed in HEK293 cells assessed as reduction of nicotine-induced ERK1/2 phosphorylation at 10 uM treated 30 mins before nicotine addition by Western blotting; type: cell-based
[11] = target: Neuronal acetylcholine receptor; alpha4/beta2 (Rattus norvegicus) (UniProt P09483+P12390); assay: Ratio of NHNB Ki to compound Ki for immunoimmobilized alpha4beta2 nAChR in Sprague-Dawley rat striatal membranes; details: Sprangue-Dawley
[12] = target: Neuronal acetylcholine receptor subunit alpha-6/beta-3 (Rattus norvegicus) (UniProt P12391+P43143); assay: Ratio of NHNB Ki to compound Ki for immunoimmobilized alpha6beta2 nAChR in Sprague-Dawley rat striatal membranes; details: Sprangue-Dawley
Rattus norvegicus [13] = species: Rattus norvegicus; assay: Agonist activity at nAChR in Sprague-Dawley rat striatal slices assessed as induction of [3H]-dopamine release at 10 uM; details: Sprangue-Dawley
Rattus norvegicus [14] = species: Rattus norvegicus; assay: Antagonist activity at nAChR in Sprague-Dawley rat striatal slices assessed as inhibition of nicotine-induced [3H]-dopamine release at 5 uM; details: Sprangue-Dawley
[15] = target: T1, Neuronal acetylcholine receptor; alpha4/beta2; assay: Binding affinity to alpha4beta2 nAChR (unknown origin); type: protein-complex assay
Rattus norvegicus [16] = species: Rattus norvegicus; assay: Agonist activity at nAChR in Sprague-Dawley rat striatal slices assessed as induction of [3H]-dopamine release at 25 uM; details: Sprangue-Dawley
Rattus norvegicus [17] = species: Rattus norvegicus; assay: Antagonist activity at nAChR in Sprague-Dawley rat striatal slices assessed as inhibition of nicotine-induced [3H]-dopamine release at 10 uM; details: Sprangue-Dawley

For `CCCCCC[n+]1cccc([C@@H]2CCCN2C)c1`, the Ki [1] was 4710 nM, the Ki [2] was > 100 µM and the IC50 [3] was 300 nM. The Activity [4] was 18%, the Activity (Rattus norvegicus [5]) was “inactive” and the IC50 [6] was 8.9 µM.
In the case of `CN1CCC[C@H]1c1ccc[n+](CCCCCCNCC2CCc3ccc(O)cc3O2)c1` (mixture of isomers), the Ki (D(2) dopamine receptor) is reported as 97 nM, the Ki [1] is reported as 109 nM and the Ki [2] is reported as 13 µM. For the same molecule, the Ki (D(3) dopamine receptor) was 15.7 nM, the IC50 [3] was 800 nM and the Activity [4] was 15%. The Activity (Rattus norvegicus [5]) was “inactive”, the IC50 [6] was 6.9 µM and the Activity [7] was “inactive”. The Activity [8] was 40%, the Activity [9] was “inactive” and the inhibition [10] was 65%.
With `CCCCCCNCC1CCc2ccc(O)cc2O1` (stereo not given) the Ki [1] was > 100000 nM and the Ki [2] was > 100 µM.
With `CN1CCC[C@H]1c1ccc[n+](CCCCCCCCCCCCNCC2CCc3ccc(O)cc3O2)c1` (mixture of isomers) the Ki (D(2) dopamine receptor) was 20 nM, the Ki [1] was 2750 nM and the Ki [2] was 65 µM. For the same molecule, the Ratio Ki [11] was 43, the Ratio Ki [12] was 30 and the Ki (D(3) dopamine receptor) was 9.9 nM. For the same molecule, the Activity [4] was 8.3%, the Activity (Rattus norvegicus [13]) was “Active” and the inhibition (Rattus norvegicus [14]) was 10%. For the same molecule, the Activity [7] was “inactive”, the Activity [9] was “inactive” and the inhibition [10] was 57%.
In the case of `CN1CCC[C@H]1c1ccc[n+](CCCCCNCC2CCc3ccc(O)cc3O2)c1` (mixture of isomers), the Ki (D(2) dopamine receptor) is reported as 120 nM, the Ki [1] is reported as 2270 nM and the Ki [2] is reported as 11 µM. The Ratio Ki [11] was 43, the Ratio Ki [12] was 30 and the Ki (D(3) dopamine receptor) was 43 nM. For the same molecule, the IC50 [3] was 200 nM, the Activity [4] was 13% and the Activity (Rattus norvegicus [5]) was “inactive”. For the same molecule, the IC50 [6] was 2.3 µM, the Activity [7] was “inactive” and the Activity [9] was “inactive”. It also gave an inhibition [10] of 55%.
Work on `CO[C@H]1CC=C2CCN3CCC4=C(CC(=O)OC4)[C@]23C1` yielded an IC50 [6] of 2.2 µM.
For `CCCCCCCCCCCC[n+]1cccc([C@@H]2CCCN2C)c1`, the Ki [1] was 1410 nM, the Ki [2] was 83 µM and the Ki [15] was 0.14 nM. For the same molecule, the Activity [4] was 9%, the IC50 [6] was 0.5 µM and the Activity (Rattus norvegicus [16]) was “Active”.
With `CN1CCC[C@H]1c1ccc[n+](CCCCCCCCCCNCC2CCc3ccc(O)cc3O2)c1` (mixture of isomers) the Ki (D(2) dopamine receptor) was 14 nM, the Ki [1] was 1060 nM and the Ki [2] was 43 µM. The Ratio Ki [11] was 43, the Ratio Ki [12] was 30 and the Ki (D(3) dopamine receptor) was 3.3 nM. The IC50 [3] was 100 nM, the Activity [4] was 4% and the IC50 [6] was 10.4 µM. For the same molecule, the Activity [7] was “inactive”, the Activity [9] was “inactive” and the inhibition [10] was 57%.
In the case of `CNC1(C)C2CCC(C2)C1(C)C` (stereo not given) [MECAMYLAMINE], the IC50 [6] is reported as 0.3 µM.
With `CN1CCC[C@H]1c1cccnc1` the Activity [9] was “Active”.
Work on `CCCCCCCCCC[n+]1cccc([C@@H]2CCCN2C)c1` yielded a Ki [1] of 8690 nM, a Ki [2] of 84 µM and a Ki [15] of 0.09 nM. The IC50 [3] was 200 nM, the Activity [4] was 1.3% and the Activity (Rattus norvegicus [5]) was “Active”. For the same molecule, the inhibition (Rattus norvegicus [17]) was “inactive”.
In the case of `CCCCC[n+]1cccc([C@@H]2CCCN2C)c1`, the Ki [1] is reported as 3940 nM, the Ki [2] is reported as > 100 µM and the IC50 [3] is reported as 90 nM. The Activity [4] was 27% and the IC50 [6] was 15.3 µM.
With `CCCNCC1CCc2ccc(O)cc2O1` (stereo not given) the Ki [1] was > 100000 nM and the Ki [2] was > 100 µM.
